Test results: US11266640B2, “Polycyclic compound acting as IDO inhibitor and/or IDO-HDAC dual inhibitor” (Hangzhou Innogate Pharma Co., Ltd., priority 2017, dated 2022)
pIC50: −log10 of the molar value.

Assays:
[1] = target: T1, IDO (Homo sapiens, UniProt P14902); assay: Hela cell-based IDO inhibitory activity test (IFNγ added); settings: Hela cells with IFNγ, 48 hours incubation, OD 480 nm
T1 construct: endogenous in cells; host or cells: HeLa cells treated with IFNγ
Protocol: 2. Hela Cell-Based IDO Inhibitory Activity Test Method
The first step: cell plating. Prepare complete medium and mix well. Cell lines that are in good growth state are selected. Remove the cell culture flask from the incubator and check the cell name, media type and cell generation number on the bottle. The medium was discarded, digested with trypsin, and after digestion, the cells were neutralized with serum-containing medium, and the cells were blown to cause the cells to fall off. Pipette the cell suspension into a centrifuge tube and centrifuge at a speed of 800-1000 for 3-5 minutes. Aspirate the cell supernatant from the centrifuge tube. Add an appropriate volume of medium to the tube and gently blister to resuspend the cells. Count using a Vi-Cell XR cytometer. Adjust the cell suspension to the appropriate concentration. The cell suspension was added to a white-well 96-well plate at 80 μl/well according to the schematic below. The second step: preparation and addition of the compound. Compounds were formulated in DMSO at 600 μM and the compounds were diluted in DMSO according to a multiple of the following table to give 6 concentration gradients of the compound. The 200× compound prepared in DMSO was formulated into a 10× dilution solution in proportion to the corresponding cell culture medium. After 24 hours of cell seeding, 10 μL of 10× corresponding compound dilution and 10 μL of 10×IFNγ were added to each well. Incubate for 48 hours in a 37° C. incubator. The third step: detection and analysis. Cell morphology was observed under an inverted microscope. 80 μL of the supernatant was added to a 3894 plate, 10 μL of 6.1 N trichloroacetic acid was added to each well, shaken for 2 minutes, and placed in a 50-degree incubator for 30 minutes. Centrifuge, 2500 rpm for 10 minutes.
Take 70 μL of the supernatant and transfer to a 3635 UV plate, add 70 μL of the reaction solution, and shake for 2 minutes to make the reaction uniform. Use EnSpire (PE) to detect data with an OD of 480 nm. The cell culture plate 3903 was allowed to stand at room temperature for 30 minutes. 100 μL/well of the cell activity detecting reagent was added to the culture plate. Mix on a shaker for 2 minutes to induce cell lysis. The 96-well plate was allowed to stand at room temperature for 10 minutes to stabilize the luminescence signal. Paste the white base film on the bottom of the plate and tested with Flexstation3 plate (the relevant setting is: Illumination, integration time 500 ms). Record the experimental results obtained from the analysis.
The IC50 value is expressed in the following manner: […]

[2] = target: T2, hIDO1 (Homo sapiens, UniProt P14902); assay: IDO inhibition activity based on HEK293T cells transfected with hIDO1 plasmid; assay type: cell-based; settings: HEK293T cells transfected with hIDO1, 16 hours incubation, OD 480 nm; read-out: IDO inhibitory activity of HEK293T cells (IC50)
T2 construct: expressed in transfected cells; host or cells: HEK293T (293T) cells, transient transfection with Fugene 6
Protocol: 1. Test Method for IDO Inhibition Activity Based on HEK293T Cells:
The first step: cell transfection and plating. 5×10^6 293T cells were separately seeded in two T75 flasks and incubated overnight at 37° C. in a 5% CO2 incubator. […] of a mixture containing 1.5 μg of hIDO1 plasmid and 300 μL of opti-MEM was made into a mixture A; 18 μL of liposome fugene 6 was mixed with 300 μL of opti-MEM to prepare a mixture B, and allowed to stand at room temperature for 5 minutes. Mixture A and Mix B were mixed, placed at room temperature for 20 minutes, added to a 293T culture flask, and the other flask was used as a control and incubated overnight at 37° C. in a 5% CO2 incubator. The medium was discarded, digested with trypsin, and after digestion, the cells were neutralized with serum-containing medium, and the cells were blown to cause the cells to fall off. Pipette the cell suspension into a centrifuge tube and centrifuge at a speed of 800-1000 for 1-3 minutes. Aspirate the cell supernatant from the centrifuge tube. Add an appropriate volume of medium to the tube and gently blister to resuspend the cells. Count using a Vi-Cell XR cytometer. Adjust the cell suspension to the appropriate concentration. The cell suspension was added to a white-well 96-well plate at 80 μL/well. The second step: preparation and addition of the compound. Compounds were formulated in DMSO at 600 μM and the compounds were diluted in DMSO according to a multiple of the following table to give 6 concentration gradients of the compound. The 200× compound prepared in DMSO was formulated into a 10× dilution solution in proportion to the corresponding cell culture medium. Add 10 μL of 10× corresponding compound dilution and 10 μL of 10×TRP to each well, except for Min. Incubate for 16 hours in a 37° C. incubator. The third step: detection and analysis. Cell morphology was observed under an inverted microscope. 80 μL of the supernatant was added to a 3894 plate, and 10 μL of 6.1 N trichloroacetic acid was added to each well, shaken for 2 minutes, and placed in a 50-degree incubator for 30 minutes. Centrifuged at 2500 rpm for 10 minutes. Take 70 μL of the supernatant and transfer to a 3635 UV plate, add 70 μL of the reaction solution, and shake for 2 minutes to make the reaction uniform. Use EnSpire (PE) to detect data with an OD of 480 nm. The cell culture plate 3903 was allowed to stand at room temperature for 30 minutes. 100 μL/well of the cell activity detecting reagent was added to the culture plate. Mix on a shaker for 2 minutes to induce cell lysis. The 96-well plate was allowed to stand at room temperature for 10 minutes to stabilize the luminescence signal. Paste the white base film on the bottom of the plate and the plate was tested in Flexstation 3 (the relevant setting is: Illumination, integration time 500 ms). Record the experimental results obtained from the analysis.
The IC50 value is expressed by: A: IC50 value≤10 nM; B: 10 nM<IC50 value≤50 nM; C: 50 nM<IC50 value≤100 nM; D: IC50 value>100 nM.

T2 sequence (P14902 whole entry): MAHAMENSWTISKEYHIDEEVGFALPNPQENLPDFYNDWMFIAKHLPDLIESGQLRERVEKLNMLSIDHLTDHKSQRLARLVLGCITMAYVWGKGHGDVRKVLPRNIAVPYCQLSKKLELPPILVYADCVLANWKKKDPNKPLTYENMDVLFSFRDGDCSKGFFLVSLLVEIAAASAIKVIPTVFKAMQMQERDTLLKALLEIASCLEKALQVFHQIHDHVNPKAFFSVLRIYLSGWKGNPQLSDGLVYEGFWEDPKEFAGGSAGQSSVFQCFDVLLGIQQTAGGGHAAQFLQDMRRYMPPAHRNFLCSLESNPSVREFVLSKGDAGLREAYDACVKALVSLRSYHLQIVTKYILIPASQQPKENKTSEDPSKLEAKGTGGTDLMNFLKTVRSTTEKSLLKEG
T1 sequence (P14902 whole entry): as above

Compound	pIC50 [1]	pIC50 [2]
CC(C(=O)Nc1ccc(Cl)nc1)[C@@H]1C[C@]2(C)C[C@H](c3ccnc4ccc(F)cc34)C[C@]2(C)C1 (stereo partly drawn) [Compound 42]	≥ 8.30	7.30 to 8.00
CC(C(=O)Nc1ccc(Cl)nc1)N1C[C@H]2C[C@@H](c3ccnc4ccc(F)cc34)C[C@H]2C1 (stereo partly drawn) [Compound 45]	7.60 to 8.30	7.30 to 8.00
O=C(C[C@@H]1C[C@@H]2C[C@@H](c3ccnc4ccc(F)cc34)C(O)[C@@H]2C1)Nc1ccc(Cl)cc1 (stereo partly drawn) [Compound 50]	7.60 to 8.30	7.30 to 8.00
O=C(C[C@@H]1C[C@@H]2C[C@@H](Oc3ccnc4ccccc34)C[C@@H]2C1)Nc1ccc(Cl)cc1 [Compound 51]	< 7.00	< 7.00
C#Cc1ccc(NC(=O)C[C@@H]2C[C@@H]3C[C@H](c4ccnc5ccc(F)cc45)C[C@@H]3C2)nc1 [Compound 67]	≥ 8.30	≥ 8.00
C/C(C(=O)Nc1ccc(Cl)cc1)=C1\C[C@@H]2C[C@H](c3ccnc4ccc(F)cc34)C[C@@H]2C1 [Compound 68]	≥ 8.30	≥ 8.00
CC(C(=O)Nc1ccc(C#N)nc1)[C@H]1C[C@H]2C[C@@H](c3ccnc4ccc(F)cc34)C[C@H]2C1 (stereo partly drawn) [Compound 72]	≥ 8.30	≥ 8.00
CC(C(=O)Nc1ccc(C#N)cn1)[C@H]1C[C@H]2C[C@@H](c3ccnc4ccc(F)cc34)C[C@H]2C1 (stereo partly drawn) [Compound 73]	≥ 8.30	≥ 8.00
C#Cc1ccc(NC(=O)C(C)[C@H]2C[C@H]3C[C@@H](c4ccnc5ccc(F)cc45)C[C@H]3C2)nc1 (stereo partly drawn) [Compound 74]	≥ 8.30	7.30 to 8.00
CC(C(=O)Nc1ccc(C#CC2CC2)cn1)[C@H]1C[C@H]2CC(c3ccnc4ccc(F)cc34)C[C@H]2C1 (stereo partly drawn) [Compound 79]	< 7.00	7.30 to 8.00
CC(C)(C(=O)Nc1ccc(Cl)cn1)[C@H]1C[C@H]2C[C@@H](c3ccnc4ccc(F)cc34)C[C@H]2C1 [Compound 84]	< 7.00	≥ 8.00
CC(C)(C(=O)Nc1ccc(Cl)nc1)[C@H]1C[C@H]2C[C@@H](c3ccnc4ccc(F)cc34)C[C@H]2C1 [Compound 85]	7.60 to 8.30	≥ 8.00
C#Cc1ccc(NC(=O)C(C)(C)[C@H]2C[C@H]3C[C@@H](c4ccnc5ccc(F)cc45)C[C@H]3C2)nc1 [Compound 86]	≥ 8.30	≥ 8.00
C#Cc1ccc(NC(=O)C(C)(C)[C@H]2C[C@H]3C[C@@H](c4ccnc5ccc(F)cc45)C[C@H]3C2)cn1 [Compound 87]	≥ 8.30	≥ 8.00
CC(C)(C(=O)Nc1ccc(C#N)cn1)[C@H]1C[C@H]2C[C@@H](c3ccnc4ccc(F)cc34)C[C@H]2C1 [Compound 88]	≥ 8.30	≥ 8.00
CC#Cc1ccc(NC(=O)C(C)(C)[C@H]2C[C@H]3C[C@@H](c4ccnc5ccc(F)cc45)C[C@H]3C2)nc1 [Compound 90]	≥ 8.30	≥ 8.00
O=C(Nc1ccc(Cl)cn1)C1([C@@H]2C[C@H]3C[C@@H](c4ccnc5ccc(F)cc45)C[C@H]3C2)CC1 [Compound 92]	≥ 8.30	≥ 8.00
C#Cc1ccc(NC(=O)C2([C@@H]3C[C@H]4C[C@@H](c5ccnc6ccc(F)cc56)C[C@H]4C3)CC2)cn1 [Compound 93]	≥ 8.30	≥ 8.00
N#Cc1ccc(NC(=O)C2([C@@H]3C[C@H]4C[C@@H](c5ccnc6ccc(F)cc56)C[C@H]4C3)CC2)nc1 [Compound 94]	≥ 8.30	7.30 to 8.00
O=C(Nc1ccc(Cl)cn1)C1([C@H]2C[C@H]3C[C@@H](c4ccnc5ccc(F)cc45)C[C@H]3C2)CC1 [Compound 95]	≥ 8.30	≥ 8.00
C#Cc1ccc(NC(=O)C2([C@H]3C[C@H]4C[C@@H](c5ccnc6ccc(F)cc56)C[C@H]4C3)CC2)nc1 [Compound 96]	≥ 8.30	≥ 8.00
